Reference: patent publication US20170224679A1, “Use of CXCR2 Antagonists For The Prevention and/or Treatment of Chemotherapy Induced Peripheral Neuropathy (CIPN)” (GlaxoSmithKline Intellectual Property Development Limited, priority 2014, published 2017)

Tests used:
CXCR1 receptor [1] = target: T1, CXCR1 receptor (Homo sapiens, UniProt P25024); assay: Receptor binding assay ([125I] IL-8 SPA), CXCR1; parameters: expressed in transfected cells; host or cells: CHO cells (membranes); details: [125I] IL-8 binding, CHO-CXCR1 membranes; read-out: pIC50 against the CXCR1 receptor (converted)
T1 sequence (P25024 1-350): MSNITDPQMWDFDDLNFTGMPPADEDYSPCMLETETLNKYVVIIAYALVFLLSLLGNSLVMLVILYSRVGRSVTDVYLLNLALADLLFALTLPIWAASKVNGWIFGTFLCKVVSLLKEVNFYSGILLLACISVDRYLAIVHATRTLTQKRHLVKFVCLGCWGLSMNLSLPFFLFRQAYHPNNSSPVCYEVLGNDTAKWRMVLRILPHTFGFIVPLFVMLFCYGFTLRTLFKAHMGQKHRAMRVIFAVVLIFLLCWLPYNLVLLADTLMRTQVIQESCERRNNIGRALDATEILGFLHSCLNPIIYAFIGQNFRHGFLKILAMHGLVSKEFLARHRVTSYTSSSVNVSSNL
Method: [^125I] IL-8 (human recombinant, IM249) was obtained from Amersham Corp., Arlington Heights, Ill., with specific activity 2000 Ci/mmol. All other chemicals were of analytical grade. High levels of recombinant human CXCR1 and CXCR2 receptors were individually expressed in Chinese hamster ovary (CHO) cells as described in Holmes, et al., Science, 1991, 253, 1278, incorporated herein to the extent required to perform the present assay. The Chinese hamster ovary membranes were prepared according to Haour, et al., J. Biol. Chem., 249 pp 2195-2205 (1974), incorporated herein to the extent required to perform the present assay, except that the homogenization buffer was changed to 40 mM Tris-HCL pH 7.5 containing 1 mM MgSO4, 0.5 mM EDTA (ethylene-diaminetetra-acetic acid), 1 mM PMSF (α-toluene-sulphonyl fluoride), 2.5 mg/L Leupeptin and 0.1 mg/ml Aprotinin. Membrane protein concentration was determined using Bio-Rad Reagent using bovine serum albumin as a standard. All binding assays were conducted using Scintillation Proximity Assay (SPA assay) using wheatgerm agglutinin beads in a 96-well micro plate (optiplate 96, Packard) format. […] The 96-well plates were incubated on a shaking platform for 1 hour. At the end of the incubation the plates were spun for 5 min at 2000 RPM, and counted in a Top Count counter.

CXCR2 receptor [2] = target: T2, CXCR2 receptor (Homo sapiens, UniProt P25025); assay: Receptor binding assay ([125I] IL-8 SPA), CXCR2; parameters: expressed in transfected cells; host or cells: CHO cells (membranes)
T2 sequence (P25025 1-360): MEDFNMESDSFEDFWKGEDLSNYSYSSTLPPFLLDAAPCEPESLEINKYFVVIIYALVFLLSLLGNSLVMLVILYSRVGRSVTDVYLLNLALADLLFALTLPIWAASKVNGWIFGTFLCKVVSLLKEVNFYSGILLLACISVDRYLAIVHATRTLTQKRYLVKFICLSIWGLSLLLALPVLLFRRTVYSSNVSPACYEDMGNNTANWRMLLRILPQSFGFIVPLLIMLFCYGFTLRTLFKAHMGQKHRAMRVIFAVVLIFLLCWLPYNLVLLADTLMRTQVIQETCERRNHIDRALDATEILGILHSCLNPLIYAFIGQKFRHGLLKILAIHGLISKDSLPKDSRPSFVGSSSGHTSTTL
Method: High levels of recombinant human CXCR1 and CXCR2 receptors were individually expressed in Chinese hamster ovary (CHO) cells as described in Holmes, et al., Science, 1991, 253, 1278, incorporated herein to the extent required to perform the present assay. The Chinese hamster ovary membranes were prepared according to Haour, et al., J. Biol. Chem., 249 pp 2195-2205 (1974), incorporated herein to the extent required to perform the present assay, except that the homogenization buffer was changed to 40 mM Tris-HCL pH 7.5 containing 1 mM MgSO4, 0.5 mM EDTA (ethylene-diaminetetra-acetic acid), 1 mM PMSF (α-toluene-sulphonyl fluoride), 2.5 mg/L Leupeptin and 0.1 mg/ml Aprotinin. Membrane protein concentration was determined using Bio-Rad Reagent using bovine serum albumin as a standard. All binding assays were conducted using Scintillation Proximity Assay (SPA assay) using wheatgerm agglutinin beads in a 96-well micro plate (optiplate 96, Packard) format. The CHO-CXCR2 and CHO-CXCR1 membranes were pre-incubated with the beads in binding buffer; 20 mM Bis Tris propane, pH 8 containing 25 mM NaCl, 1 mM MgSO4, 0.1 mM EDTA at 4° C. for 30 min prior to assay. The compound was diluted in 100% DMSO at 20 times the final concentration (final 1 nM to 1000 nM and 5% DMSO). […] At the end of the incubation the plates were spun for 5 min at 2000 RPM, and counted in a Top Count counter.

CXCR2 receptor [3] = target: T2, CXCR2 receptor; assay: Calcium mobilization assay (FLIPR, IL-8 induced); format: cell-based; parameters: expressed in transfected cells; host or cells: CHO-K1 cells
Method: CHO-K1 cells, stably expressing CXCR2 and Gαl6, were grown to 80% confluency in DMEM/F12 (HAM's) 1:1, w/10% FCS (heat inactivated), w/2 mM L-glutamine, w/0.4 mg/ml G418 while maintained at 37° C. in a 5% CO2 incubator. Twenty four hours prior to conducting the assay, the cells were harvested and plated (40,000 cells per well) in a 96 well, black wall, clear bottom plate (Packard View) and returned to the CO2 incubator. On the day of the assay, compounds were serially diluted in 100% DMSO to 300× the desired assay concentration. Growth media was aspirated from the cells and replaced with 100 μL of load media (EMEM with Earl's salts w/LGlutamine, 0.1% BSA, (Bovunlinar Cohen Fraction V from Seriologicals Corp.), 4 uM Fluo-4-acetoxymethyl ester fluorescent indicator dye (Fluo-4 AM, from Molecular Probes) and 2.5 mM probenecid) and incubated for 1 hour at 37° C. in a CO2 incubator. Load media was aspirated and replaced with 100 μL of EMEM with Earl's salts w/L-Glutamine, 0.1% gelatin and 2.5 mM probenecid and incubated for an additional 10 min. Serially diluted compound (3 μL) in DMSO at 300× was transferred to a 96 well plate containing 297 micro liters of KRH (120 mM NaCl, 4.6 mM KCl, 1.03 mM KH2PO4, 25 mM NaHCO3, 1.0 mM CaCl2, 1.1 mM MgCl2, 11 mM glucose, 20 mM HEPES (pH 7.4)) w/2.5 mM probenecid and 0.1% gelatin (compound now at 3×). […]

Caco-2 cell line = assay: Colorectal cancer cell line proliferation assay, Caco-2; format: cell-based; details: Caco-2, compound alone 8.5 μM, non-significant
Method: Cell proliferation assay: Cells were seeded in 96-well plates (Costar) at different cell densities: HCT116, 500 cells per well; Caco-2, 1000 cells per well. Total volume of the medium was 90 μl per well. Cells were incubated for 24 hours at 37° C. and 5% CO2 incubator.
The cell proliferation rate was measured by adding 100 μl of CellTiter-Glo™ (Promega) according to the manufacturer's instructions. After 10 minutes of incubation, the cell lysates were transferred into OptiPlate-384 well, the luminescence was recorded by BioTek Synergy™ 4 Hybrid Microplate Reader with Gen5 software. All data points were generated in five replicates. Three independent experiments were performed.
Data Analysis: pIC50 values were calculated by software GraphPad Prism 5 using sigmoidal concentration-response (variable slope). All data were presented as the mean±standard error of the mean determined from three independent experiments.

CXCR1 receptor [4] = target: T1, CXCR1 receptor; assay: GPCR Arrestin Assay (DiscoveRX PathHunter), CXCR1; format: cell-based; parameters: host or cells: PathHunter CHO cell lines; details: PathHunter CHO cells, agonist at EC80; read-out: pIC50 against the CXCR1 receptor (converted)
Method: Certain compounds of the invention were also tested by DiscoveRX Corporation (42501 Albrae Street, Fremont, Calif. 94538, United States) in their GPCR Arrestin Assay to determine their activity against a panel of receptors including CXCR2 and CXCR1. PathHunter CHO cell lines were expanded from freezer stocks according to standard procedures. Cells were seeded in a total volume of 20 μL into white walled, 384-well microplates and incubated at 37° C. for the appropriate time prior to testing. The cells were pre-incubated with antagonist followed by agonist challenge at the EC80 concentration. Intermediate dilution of sample stocks was performed to generate 5× sample in assay buffer. 5 μL of 5× sample was added to cells and incubated at 37° C. or room temperature for 30 minutes. […] Assay signal was generated through a single addition of 12.5 or 15 μL (50% v/v) of PathHunter Detection reagent cocktail, followed by one hour incubation at room temperature. Microplates were read following signal generation with a PerkinElmer Envision™ instrument for chemiluminescent signal detection. Compound activity was analyzed using CBIS data analysis suite (ChemInnovation, Calif.).

| SMILES | IC50 (CXCR1 receptor [1]) [nM] | IC50 (CXCR2 receptor [2]; [125I] IL-8 binding, CHO-CXCR2 membranes, read-out: pIC50 against the CXCR2 receptor (converted)) [nM] | selectivity for CXCR2 over CXCR1 (CXCR2 receptor [2]; receptor binding assay a)) [fold] | Kb (CXCR2 receptor [3]) [nM] | decrease of basal proliferation (Caco-2 cell line) [%] | IC50 (CXCR1 receptor [4]) [nM] |
| --- | --- | --- | --- | --- | --- | --- |
| O=C(Nc1ccc(Cl)c(S(=O)(=O)N2CCNCC2)c1O)Nc1cccc(F)c1Cl [Compound of Formula (A), 1-(4-chloro-2-hydroxy-3-(piperazin-1-ylsulfonyl)phenyl)-3-(2-chloro-3-fluorophenyl)urea] | 3160 | 15.8 | 188 | 3.98 | 2.7±2.1 | – |
| CN1CCC(C)(S(=O)(=O)c2c(Cl)ccc(NC(=O)Nc3cccc(F)c3Cl)c2O)CC1 [Compound of Formula (D), 1-(4-chloro-3-((1,4-dimethylpiperidin-4-yl)sulfonyl)-2-hydroxyphenyl)-3-(2-chloro-3-fluorophenyl)urea] | – | – | – | – | – | 2510 |
